Assay in all cases: inhibition of tumour cell growth, NCI panel, 48 h
The subject of test [1] is HL-60(TB) leukemia.
Test [2] concerns SW-620 colon.
In test [3] the test system is ACHN renal.
Test [4] concerns UO-31 renal.
Test [5] deals with NCI-H226 lung.
For test [6], the system named is NCI-H23 lung.
For test [7], the system named is SK-OV-3 ovarian.
In test [8] the test system is UACC-257 melanoma.
Test [9] has as its system RXF 393 renal.
In test [10] the test system is SK-MEL-28 melanoma.

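Cells were grown in 96-well plates and exposed to each compound for 48 hours at five concentrations; endpoints were interpolated linearly between bracketing concentrations, or set to the highest concentration if not reached. GI50 is the concentration that inhibits growth by half. At the TGI there is no net growth.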

The values below come from PubChem BioAssay (NCI).

For `Nc1c(C(=O)Nc2cccc([N+](=O)[O-])c2)sc2nc3c(cc12)C(O)CCC3` (stereo not given), the GI50 was 2.37 µM in test [1]; 3.48 µM in test [2]; 30.6 µM in [3]; greater than 100 µM in test [4]; 29.6 µM in [5]; greater than 100 µM in [6]. Moreover, the GI50 in [7] was 10.2 µM; in test [8] it was greater than 29.8 µM; in [9], 6.76 µM; in test [10] it was 16.9 µM. In addition, the TGI in test [1], in test [2], in [3], in test [4], in [5] and in test [6] was greater than 100 µM each time. Also, the TGI in [7] is greater than 100 µM; in test [8], greater than 100 µM; in [9] it was greater than 65.8 µM; in test [10], greater than 100 µM.
In the case of `N#Cc1cnc2cc(OC[C@H](O)CO)c(NC(=O)CC3CSSC3)cc2c1Nc1ccc(OCc2cccc(F)c2)c(Cl)c1`, the GI50 was 0.806 µM in test [1]; 0.698 µM in [2]; 1.73 µM in [3]; 2.11 µM in test [4]; 0.335 µM in test [5]; 0.772 µM in test [6]. Besides, the GI50 in [7] is 0.748 µM; in test [8] it was 1.01 µM; in [9], 0.987 µM; in [10] it was 0.126 µM. In addition, the TGI is 1.93 µM in test [1]; 1.58 µM in test [2]; 5.42 µM in [3]; 7.75 µM in [4]; 1.49 µM in [5]; 1.7 µM in test [6]. In addition, the TGI in test [7] was determined as 1.48 µM; in [8], 1.96 µM; in test [9], 1.85 µM; in test [10] it was 0.319 µM.
As for `CN(CCCN)CCCNc1nc2ccccc2c2[nH]c3ccccc3c12`, the GI50 is 0.138 µM in test [1]; 0.315 µM in test [2]; 0.409 µM in test [3]; 0.337 µM in test [4]; 0.297 µM in test [5]; 0.201 µM in test [6]. Further, the GI50 was 2.07 µM in test [7], 1.77 µM in test [8], 0.109 µM in test [9] and 0.342 µM in [10]. The TGI in test [1] was 0.59 µM; in test [2], 1.64 µM; in [3] it was 4.45 µM; in [4], 1.34 µM; in test [5], 0.997 µM; in test [6], 0.57 µM. The TGI came to 7.29 µM in [7], 3.49 µM in test [8], 0.515 µM in test [9] and 1.17 µM in test [10].
`ClCCn1c(CCl)nc2ccc(Cl)cc21`: the GI50 in test [1] was 1.89 µM; in test [2], 0.289 µM; in test [3], 1.35 µM; in test [4], 1.57 µM; in [5], 0.193 µM; in test [6] it was 0.252 µM. The GI50 is 0.305 µM in test [7], 1.62 µM in test [8], 0.379 µM in test [9] and 1.68 µM in test [10]. The TGI in test [1] was determined as 4.11 µM; in [2], 1.11 µM; in test [3] it was 2.72 µM; in test [4] it was 3.11 µM; in test [5] it was 0.442 µM; in test [6], 0.832 µM. Also, the TGI in [7] turned out to be 0.853 µM; in [8], 3.49 µM; in test [9], 1.34 µM; in [10], 3.49 µM.
On to `COc1ccc2c(c1)C(O)(C(F)(F)F)c1cc(C(=O)C(F)(F)F)c3ccccc3c1N2` (stereo not given), for which the TGI in [1] is 43.2 µM; in [2] it was 26.8 µM; in test [3], 18.1 µM; in [4], 21.5 µM; in [5], 28 µM; in test [6], 25.6 µM. In addition, the TGI in test [7] turned out to be 31.6 µM; in test [8], 26.4 µM; in test [9], 23.8 µM; in [10], 27.7 µM.
Turning to `O=C(c1ccc(F)cc1)c1cccc(C(=O)c2ccc(F)cc2)n1`, the TGI in [1] is greater than 100 µM; in test [2] it was greater than 100 µM; in [3], greater than 100 µM; in test [4], 66.6 µM; in test [5], greater than 78 µM; in test [6], 55.7 µM. In addition, the TGI in [7] was 52.5 µM; in test [8] it was greater than 56.2 µM; in test [9], 33.4 µM; in test [10] it was greater than 100 µM.
On to `CC1=NCCc2c1[nH]c1cc(O)ccc21`, for which the TGI in test [1], in [2], in test [3], in test [4], in test [5] and in test [6] was greater than 100 µM each time. The TGI in test [7], in test [8], in test [9] and in [10] was greater than 100 µM each time.
With `CNC(=O)n1ccc2cc(Oc3ccnc(NC(=O)c4ccc(C5CCN(CCO)CC5)cc4)c3)c(OCCOC)cc21`, the GI50 in test [1] was 2.13 µM; in test [2], 6.3 µM; in test [3], 3.16 µM; in [4], 16.5 µM; in [5], 12.1 µM; in test [6] it was 10.5 µM. Moreover, the GI50 is 10.5 µM in test [7], 2.24 µM in [8], 1.34 µM in test [9] and 6.33 µM in [10]. Besides, the TGI came out at 4.58 µM in test [1]; 18.9 µM in test [2]; 10.7 µM in [3]; 33.2 µM in test [4]; 31.3 µM in test [5]; 24.4 µM in test [6]. For the same compound, the TGI in test [7] is 23.1 µM; in test [8], 5.73 µM; in test [9], 3.09 µM; in test [10] it was 19.2 µM.
